# Test results published in the Kinase Knowledgebase extract (Sharma et al. 2016).
# Target: PIK3CG (human) (UniProt P48736)
# Assay: Inhibition of PIK3CG Kinase Activity
# Sequence of PIK3CG (human) (P48736 whole entry, looked up): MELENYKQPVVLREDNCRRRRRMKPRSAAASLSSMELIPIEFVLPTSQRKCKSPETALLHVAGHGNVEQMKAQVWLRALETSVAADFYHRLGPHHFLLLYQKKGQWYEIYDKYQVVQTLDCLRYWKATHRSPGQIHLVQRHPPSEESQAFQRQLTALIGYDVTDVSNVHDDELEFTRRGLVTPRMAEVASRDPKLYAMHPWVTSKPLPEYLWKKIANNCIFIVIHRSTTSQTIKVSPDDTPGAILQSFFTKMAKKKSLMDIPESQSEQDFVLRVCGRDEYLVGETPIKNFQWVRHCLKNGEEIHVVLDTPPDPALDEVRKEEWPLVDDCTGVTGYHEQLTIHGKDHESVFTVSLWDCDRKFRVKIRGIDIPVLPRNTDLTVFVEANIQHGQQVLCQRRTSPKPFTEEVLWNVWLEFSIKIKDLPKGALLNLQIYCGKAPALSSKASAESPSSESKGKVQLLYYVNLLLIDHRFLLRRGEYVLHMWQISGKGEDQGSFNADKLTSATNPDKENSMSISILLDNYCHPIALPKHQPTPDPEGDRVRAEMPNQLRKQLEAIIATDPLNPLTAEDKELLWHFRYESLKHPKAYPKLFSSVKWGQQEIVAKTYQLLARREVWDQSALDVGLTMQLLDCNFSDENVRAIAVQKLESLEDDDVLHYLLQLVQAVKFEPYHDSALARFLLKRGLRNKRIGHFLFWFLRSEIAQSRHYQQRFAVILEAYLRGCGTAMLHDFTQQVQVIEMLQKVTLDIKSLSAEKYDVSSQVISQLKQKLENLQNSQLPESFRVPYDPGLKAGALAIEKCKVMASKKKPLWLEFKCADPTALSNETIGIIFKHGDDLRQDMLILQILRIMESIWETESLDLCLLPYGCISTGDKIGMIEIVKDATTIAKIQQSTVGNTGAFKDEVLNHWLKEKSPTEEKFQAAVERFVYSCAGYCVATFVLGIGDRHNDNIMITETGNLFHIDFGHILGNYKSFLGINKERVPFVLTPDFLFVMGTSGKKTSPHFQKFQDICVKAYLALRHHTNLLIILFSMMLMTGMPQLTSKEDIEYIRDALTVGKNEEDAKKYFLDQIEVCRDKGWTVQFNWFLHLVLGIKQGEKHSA
row,Ki,Structure (SMILES)
1,< 100 nM,CCOC1c2nc(-c3cnc(OC)c(OC)c3)cc(C)c2C(=O)N1c1cnn(CC(F)(F)F)c1 (stereo not given)
2,< 100 nM,Cc1cc(-c2cncc(OC(F)F)c2)nc2c1C(=O)N(c1cnn(C[C@H](C)O)c1)[C@@H]2C
3,< 100 nM,CCn1cc(N2C(=O)c3c(C)cc(-c4cncc(OC(F)F)c4)nc3[C@H]2C)cn1
4,100 to 490 nM,CCn1cc(N2Cc3cc(-c4ccc(OC)c(OC)n4)ccc3C2=O)cn1
5,< 100 nM,COc1ncc(-c2cc(C)c3c(n2)CN(c2cnn(CC(F)(F)F)c2)C3=O)cc1O
6,< 100 nM,COc1cncc(-c2cc(C)c3c(n2)C2(CC2)N(c2cnn(CC(F)(F)F)c2)C3=O)c1
7,< 100 nM,COc1cncc(-c2cc(C)c3c(n2)C(C)N(c2cnn(CC(F)(F)F)c2)C3=O)c1 (stereo not given)
8,< 100 nM,CCn1cc(N2C(=O)c3ccc(-c4cnc(OC)c(OC(F)F)c4)nc3[C@@H]2C)cn1
9,< 100 nM,COc1ccc(-c2cc(C)c3c(n2)CN(c2cnn(CC(F)(F)F)c2)C3=O)nc1OC
10,< 100 nM,COc1cc(-c2ccc3c(n2)[C@H](C)N(c2ccn(C[C@H](C)O)n2)C3=O)cnc1OC
11,< 100 nM,CCO[C@H]1c2nc(-c3cnc(OC)c(OC)c3)cc(C)c2C(=O)N1c1cnn(CC(F)(F)F)c1
12,< 100 nM,COc1cc(-c2ccc3c(n2)[C@H](C)N(c2ccn(CC(C)(C)O)n2)C3=O)cnc1OC
13,< 100 nM,Cc1cc(-c2cc(C)c3c(n2)CN(c2cnn(CC(F)(F)F)c2)C3=O)ccn1
14,< 100 nM,Cc1cc(-c2ccc(Cl)c(O)c2)nc2c1C(=O)N(c1cnn(CC(F)(F)F)c1)C2
15,< 100 nM,COc1ncc(-c2cc(C)c3c(c2)C(C)N(c2cnn(CC(F)(F)F)c2)C3=O)cc1F (stereo not given)
16,< 100 nM,COc1cc(-c2cc(C)c3c(n2)CN(c2cnn(CC(F)(F)F)c2)C3=O)cnc1C
17,< 100 nM,C=C1c2nc(-c3cnc(OC)c(OC)c3)ccc2C(=O)N1c1cnn(CC(F)(F)F)c1
18,< 100 nM,COc1cc(-c2cc(C)c3c(n2)CN(c2cnn(CC(F)(F)F)c2)C3=O)ccc1F
19,< 100 nM,COc1cc(-c2ccc3c(n2)[C@H](C)N(c2cc[nH]n2)C3=O)cnc1OC
20,< 100 nM,CCn1cc(N2C(=O)c3ccc(-c4cnc(OC)c(OC)c4)nc3C2C)cn1 (stereo not given)
21,< 100 nM,CCn1cc(N2C(=O)c3ccc(-c4cnc(OC)c(OC(F)F)c4)nc3C2C)cn1 (stereo not given)
22,< 100 nM,Cc1cc(-c2cncc(C(=O)NC(C)C)c2)nc2c1C(=O)N(c1cnn(CC(F)(F)F)c1)C2C (stereo not given)
23,< 100 nM,CC1c2nc(-c3cccc(OC(F)(F)F)c3)ccc2C(=O)N1c1cnn(CC(F)(F)F)c1 (stereo not given)
24,< 100 nM,COCCC1c2nc(-c3cnc(OC)c(OC)c3)cc(C)c2C(=O)N1c1cnn(CC(F)(F)F)c1 (stereo not given)

# More lines, now with the values behind:
row,Structure (SMILES),Ki
1,Cc1cc(-c2cncc(OC(F)F)c2)nc2c1C(=O)N(c1cn[nH]c1)C2(C)C,< 100 nM
2,CCn1cc(N2Cc3nc(-c4cnc(OC)c(OC(C)C)c4)cc(C)c3C2=O)cn1,< 100 nM
3,CCOc1cc(N2Cc3nc(-c4cnc(OC)c(OC)c4)cc(C)c3C2=O)ccn1,< 100 nM
4,CCOc1cc(-c2cc(C)c3c(n2)C(C)(C)N(c2cnn(CC(F)F)c2)C3=O)cnc1C,< 100 nM
5,Cc1cc(-c2cncc(OC(F)F)c2)nc2c1C(=O)N(c1cc[nH]n1)C2,< 100 nM
6,COc1cc(-c2ccc3c(c2)CN(c2cc(C4CC4)[nH]n2)C3=O)cnc1OC,< 100 nM
7,COc1cc(-c2ccc3c(n2)C(C)(C)N(c2cnn(CC#N)c2)C3=O)cnc1OC,< 100 nM
8,COc1cc(-c2ccc3c(c2)CN(c2csc(C)c2)C3=O)cnc1OC,100 to 490 nM
9,Cc1cc(-c2cncc(C(F)(F)F)c2)nc2c1C(=O)N(c1cnn(CC#N)c1)C2,< 100 nM
10,COc1ncc(-c2cc(C)c3c(n2)CN(c2cnn(C(C)(C)C#N)c2)C3=O)cn1,< 100 nM
11,CCOc1ncc(-c2cc(C)c3c(n2)C2(CCCO2)N(c2ccn(CC)n2)C3=O)cc1OC (stereo not given),100 to 490 nM
12,Cc1cc(-c2cncc(OC(F)F)c2)nc2c1C(=O)N(c1ccnc(OCC(F)F)c1)C2C (stereo not given),< 100 nM
13,COc1cc(-c2ccc3c(n2)CN(c2cnn(C(C)(C)C#N)c2)C3=O)cnc1OC,< 100 nM
14,CNC(=O)c1cncc(-c2cc(C)c3c(n2)C(C)(C)N(c2cnn(CC(F)(F)F)c2)C3=O)c1,< 100 nM
15,COc1ncc(-c2ccc3c(n2)CN(c2ccn(C)n2)C3=O)cc1OC(F)F,< 100 nM
16,CCNC(=O)c1cc(-c2cc(C)c3c(n2)C2(CCOC2)N(c2cnn(CC(F)(F)F)c2)C3=O)cnc1OC (stereo not given),< 100 nM
17,COc1cc(-c2ccc3c(n2)CN(c2ccnc(CC#N)c2)C3=O)cnc1OC,< 100 nM
18,COc1cc(-c2cc(C)c3c(n2)CN(c2cnn(CC#N)c2)C3=O)cnc1OC,< 100 nM
19,COc1cc(-c2ccc3c(n2)CN(c2cnn(CCCO)c2)C3=O)cnc1OC,< 100 nM
20,COc1cc(-c2ccc3c(n2)CN(c2cncc(CO)c2)C3=O)cnc1OC,< 100 nM
21,COc1cc(-c2ccc3c(n2)CN(c2cnn(Cc4cccnc4)c2)C3=O)cnc1OC,< 100 nM
22,COc1cc(-c2ccc3c(c2)CN(c2cccc(CC#N)c2)C3=O)cnc1OC,< 100 nM
23,COc1cc(-c2cc(C)c3c(n2)[C@]2(CCCO2)N(c2cnn(CC(F)(F)F)c2)C3=O)cnc1OC(C)C,< 100 nM

row,Structure (SMILES),Ki
1,COc1cc(-c2ccc3c(n2)CN(c2ccc(N4CCC(OC)CC4)nc2)C3=O)cnc1OC,< 100 nM
2,COc1cc(-c2ccc3c(n2)CN(c2cnn(CCO)c2)C3=O)cnc1OC,< 100 nM
3,CCn1cc(N2Cc3cc(-c4cnc(OC)nc4OC)ccc3C2=O)cn1,100 to 490 nM
4,COc1cc(N2Cc3nc(-c4cnc(OC)c(OC)c4)cc(C)c3C2=O)cnc1CO,< 100 nM
5,COc1ncc(-c2cc(C)c3c(n2)CN(c2cnn(C(C)(C)C#N)c2)C3=O)c(OC)n1,< 100 nM
6,CCOc1ncc(-c2cc(C)c3c(n2)C2(CC2)N(c2cnn(CC(F)(F)F)c2)C3=O)cc1OC,< 100 nM
7,COc1cncc(-c2cc(C)c3c(n2)CN(c2cnn(CC#N)c2)C3=O)c1,< 100 nM
8,COc1cc(-c2cc(C)c3c(n2)CN(c2cncc(CN(C)C)c2)C3=O)cnc1OC,< 100 nM
9,COc1cc(-c2cc(C)c3c(c2)CN(c2cnn([C@H](CO)C(F)(F)F)c2)C3=O)cnc1OC,< 100 nM
10,COCc1cc(N2Cc3nc(-c4cnc(OC)c(OC)c4)ccc3C2=O)nn1CC(F)(F)F,< 100 nM
11,COc1ncc(-c2cc(C)c3c(n2)CN(c2cc[nH]n2)C3=O)cc1OC(F)F,< 100 nM
12,COc1cc(-c2cc(C)c3c(n2)CN(c2cncc(OC(F)F)c2)C3=O)cnc1OC,< 100 nM
13,COc1cc(-c2ccc3c(n2)CN(c2ccc(CN4CCOCC4)nc2)C3=O)cnc1OC,100 to 490 nM
14,COc1cc(-c2cc(C)c3c(n2)CN(c2ccn(C)n2)C3=O)cnc1OC,< 100 nM
15,COc1cc(-c2ccc3c(n2)CN(c2ccc(N4CCC(CO)C4)nc2)C3=O)cnc1OC (stereo not given),100 to 490 nM
16,CCc1n[nH]c(N2Cc3cc(-c4cnc(OC)c(OC)c4)ccc3C2=O)n1,< 100 nM
17,CCOc1cc(-c2cc(C)c3c(c2)CN(c2cnn(CC#N)c2)C3=O)cnc1OCC,< 100 nM
18,COc1cc(-c2ccc3c(c2)CN(c2cnn(CCCO)c2)C3=O)cnc1OC,100 to 490 nM
19,COc1cc(-c2cc(C)c3c(n2)[C@](C)(O)N(c2cnn(CC(F)(F)F)c2)C3=O)cnc1OC,< 100 nM
20,COc1cc(-c2cc(C)c3c(n2)C2(CCCO2)N(c2cnn(CC(F)(F)F)c2)C3=O)cnc1OC (stereo not given),< 100 nM
21,COCCCn1cc(N2Cc3cc(-c4cnc(OC)c(OC)c4)ccc3C2=O)cn1,100 to 490 nM
22,COc1cc(-c2ccc3c(n2)CN(c2cnn(CCN(C)C)c2)C3=O)cnc1OC,100 to 490 nM
23,COc1cncc(-c2cc(C)c3c(n2)C(C)N(c2cn[nH]c2)C3=O)c1 (stereo not given),< 100 nM
